According to US7022720B2, “Synthetic diazonamides as novel anti-mitotic agents” (Board of Regents, The University of Texas System, priority 2001, dated 2006):
Like-named read-outs stand apart in the source and are kept apart here.

Experiments:
OVCAR-3 cells [1] = experiment: In vitro cytotoxicity assay (Promega CellTiter-Glo) in OVCAR-3; type: cell-based, human
Protocol: A growth inhibition study was also conducted using OVCAR-3 (a human ovarian adenocarcinoma) cells. Human ovarian adenocarcinoma OVCAR-3 cells are treated with diazonamide and control compounds for 48 hours and evaluated for cell viability using the Promega CellTiter-Glo™ Assay (Promega, Madison, Wis.). This assay uses luciferase to measure ATP as indicator of metabolically active cells.

SK-MEL-5 cells = experiment: MTT assay in SK-MEL-5; type: cell-based, human; details: SK-MEL-5, MTT, FIG. 13
From the text: This assay measures cellular viability and proliferation based on the ability of live cells to take up and cleave a tetrazolium salt to generate a colored product.

HCT-116 cells [2] = type: cell-based, human; details: 30 nM, 12-48 hours, FIG. 14
Protocol: FACS Analysis was performed on HCT-116 cells to examine the effect of JL-9 on mitosis. 150,000 HCT-116 cells were incubated per well with media into six well tissue culture plates. Cells were allowed to adhere for 16–18 hours. Media containing 0.01% ethanol (vehicle control), 30 nanomolar (nM) taxol, 30 nM vinblastine and 30 nM JL-9 was added to cells and incubated for 12, 24, 36, or 48 hours. At these time points, cells were harvested with 0.25% trypsin 1 mM EDTA, and transferred to 1.5 ml Eppendorf tubes. Cells were pelleted and washed twice with 1×PBS. Cells were then fixed in −20° C. 100% ethanol and stored at 4° C. Cells were pelleted from 100% ethanol, washed once with 1×PBS, and treated with Vindelov's propidium iodide solution (50 ug/ml propidium iodide, 0.01 mM NaCl, 0.1% IPEGAL, 0.01 mg RNase) and 1 mg/ml RNAse for 30 minutes at 37° C. Propidium iodide is a fluorescent marker that binds to nucleotides. It can be used with FACS scan analysis to determine the ploidy of a population of cells. FACS scan analysis was performed using […] FACScan instrument. Data was analyzed using Cell Quest software.

OVCAR-3 cells [3] = experiment: Indirect immunofluorescence of tubulin cytoskeleton in OVCAR-3; type: cell-based, human; details: OVCAR-3, 12 or 23 hours, FIGS. 15D and 15E
Protocol: Immunofluorescence was performed on JL-9, taxol, vinblastine, control-treated OVCAR-3 cells to examine their effects on tubulin cytoskeleton. Cells were grown on 2 cm glass cover slips in tissue culture wells. Media containing JL-9, vinblastine, or taxol was added at various concentrations and incubated for 12 or 23 hours. Hoescht […] nuclear dye was added directly to the media (1.5 ug/ml) and incubated at 37° C. for 30 minutes. Coverslips were washed 3× with 1×PBS and fixed for 10 minutes with −20C 100% methanol. Coverslips were washed 3× with 1×PBS/1% BSA and treated directly with a 1/2000 dilution of anti-α-tubulin antibody (mouse anti-human). Coverslips were washed 3× with 1×PBS/1% BSA and treated with 1/500 dilution of fluorescently conjugated goat anti-mouse secondary antibody (Alexa Fluor 488). Coverslips were washed 3× with 1×PBS/1% BSA and mounted on microscope slides using mounting media (Aqua Poly Mount). Images were obtained using Zeiss Axiovert 100M digital light and confocal microscopy.

BSC-1 cells = experiment: Immunofluorescence of alpha tubulin in BSC-1 cells after thymidine block; type: cell-based, African Green Monkey; details: BSC-1, 100 nM, 12 hours after thymidine block, FIG. 16
Protocol: Immunofluorescence was also performed on JL-9, JL-10, taxol and vinblastine-treated BSC-1 cells subjected to thymidine block. BCS-1 African Green Monkey kidney cells were treated for 18 hours in culture medium containing 2 mM thymidine and then returned to normal medium containing 100 nM of taxol, vinblastine, JL-10 (control) or JL-9 for 12 hours. During the last 30 minutes, Hoecht's dye was added to 100 nM to stain chromosomes. Cells were fixed in cold methanol and stained with antibody specific for alpha tubulin. Images of the organization of microtubules in spindles were collected with a laser scanning confocal microscope using a single 488 nm excitation wavelength.

[4] = Comparison of synthesized compound with natural diazonamide (handling stability); type: physicochemical
From the text: Characteristics of synthesized diazonamide compound, JL-9, were compared to naturally occurring diazonamide. […] The process completes upon attempted preparative HPLC purification of 1b (FIG. 1) under conditions identical to those used to isolate natural (−)-diazonamide A. In addition, a second degradation pathway available in this series appears as a result of the cleavage of the strained macrolactam ring through diketopiperazine formation that involves the C37 amine and the C12 amide carbonyl.

HCT-116 cells [5] = details: HCT-116 human colorectal carcinoma line; cited from earlier work

Structure (SMILES)	GI50 (OVCAR-3 cells [1]; Homo sapiens, OVCAR-3, 48 h) [nM]	cytotoxic and growth inhibitory effect (SK-MEL-5 cells)	cell cycle arrest (ploidy) (HCT-116 cells [2])	mitotic figures / spindle organization (BSC-1 cells)	also measured
CC(C)[C@H](O)C(=O)N[C@H]1Cc2ccc3c(c2)C24C5=C(N=C(O5)[C@H](C(C)C)NC1=O)c1nc(Cl)c(o1)-c1c(Cl)[nH]c5cccc(c15)-c1cccc2c1OC4O3 (stereo partly drawn) [JL-9]	16	potent cytotoxic and growth inhibitory effect	arrests HCT-116 cells in the tetraploid (4n) state	Mitotic figures were frequently found	fold more potent than JL-10 at inhibiting growth (OVCAR-3 cells [1]; OVCAR-3 in vitro): > 50 fold; potency relative to natural diazonamide A and paclitaxel (OVCAR-3 cells [1]; OVCAR-3 in vitro): equipotent to natural diazonamide A and paclitaxel; effect on tubulin cytoskeleton (OVCAR-3 cells [3]): aberrant effects on the cytoskeleton and formation of abnormal mitotic spindles; stability on handling [4]: susceptible to handling
CC(C)[C@H](N)C(=O)N[C@H]1Cc2ccc3c(c2)C24C5=C(N=C(O5)[C@H](C(C)C)NC1=O)c1nc(Cl)c(o1)-c1c(Cl)[nH]c5cccc(c15)-c1cccc2c1OC4O3 (stereo partly drawn) [JL-10]	845	inactive analogue	–	resembled the vehicle controls	–
CC(C)[C@H](O)C(=O)N[C@H]1Cc2ccc3c(c2)[C@]24C5=C(N=C(O5)[C@H](C(C)C)NC1=O)c1nc(Cl)c(o1)-c1c(Cl)[nH]c5cccc(c15)-c1cccc2c1N[C@@H]4O3 [natural diazonamide, diazonamide A, reference compound]	–	–	–	–	GI50 (OVCAR-3 cells [1]; OVCAR-3, 48 hours, CellTiter-Glo, read-out: GI50): 8 nM; GI50 (50% growth inhibitory concentration) (HCT-116 cells [5]): less than 15 ng/ml
CC(=O)O[C@H]1C(=O)[C@@]2(C)[C@H]([C@H](OC(=O)c3ccccc3)[C@]3(O)C[C@H](OC(=O)[C@H](O)[C@@H](NC(=O)c4ccccc4)c4ccccc4)C(C)=C1C3(C)C)[C@]1(OC(C)=O)CO[C@@H]1C[C@@H]2O [paclitaxel, reference compound]	–	–	arrests HCT-116 cells in the tetraploid (4n) state	Mitotic figures were frequently found	GI50 (OVCAR-3 cells [1]; Homo sapiens, OVCAR-3, 48 hours, CellTiter-Glo, read-out: GI50): 8 nM
CC[C@]1(O)C[C@@H]2CN(CCc3c([nH]c4ccccc34)[C@@](C(=O)OC)(c3cc4c(cc3OC)N(C)[C@H]3[C@@](O)(C(=O)OC)[C@H](OC(C)=O)[C@]5(CC)C=CCN6CC[C@]43[C@@H]65)C2)C1 [vinblastine, reference compound]	–	–	arrests HCT-116 cells in the tetraploid (4n) state	Mitotic figures were frequently found	–
